Results from patent US4442044A, “Process for preparing monoesters and diesters of N-alkyl substituted amino methyl phosphonic acid” (priority 1983, dated 1984).

Legend:
Experiment in all cases: post-emergent herbicidal activity, greenhouse
Type in all cases: in vivo
Conditions in all cases: Table I
[1] = test system: Barnyardgrass
Description: (§1) A good grade of top soil is placed in aluminum pans having holes in the bottom and compacted to a depth of 0.95 to 1.27 cm. from the top of the pan. A predetermined number of seeds of each of several dicotyledonous and monocotyledonous annual plant species and/or vegetative propagules for the perennial plant species were placed on the soil and pressed into the soil surface. The seeds and/or vegetative propagules are covered with soil and leveled. The pans are then placed on a sand bench in the greenhouse and watered from below as needed. After the plants reach the desired age (two to three weeks), each pan except for the control pans is removed individually to a spraying chamber and sprayed by means of an atomizer operating at a positive air pressure of approximately 1.46 kg/cm^2 absolute. The atomizer contains 6 ml. of a solution or suspension of the chemical. In that 6 ml., is an amount of a cyclohexanone emulsifying agent mixture to give a spray solution or suspension which contains about 0.4% by weight of the emulsifier. The spray solution or suspension contains a sufficient amount of the candidate chemical in order to give application rates corresponding to those set forth in the tables. The spray solution is prepared by taking an aliquot of a 1.0% by weight stock solution or suspension of the candidate chemical in an organic solvent such as acetone or tetrahydrofuran or in water. The emulsifying agent employed is a mixture comprising 35 weight percent butylamine dodecylbenzene sulfonate and 65 weight percent of a tall oil ethylene oxide condensate having about 11 moles of ethylene oxide per mole of tall oil. The pans are returned to the greenhouse and watered as before and the injury to the plants as compared to the control is observed at approximately two and four weeks as indicated in the tables under WAT and the results recorded. In some instances, the two-week observations are omitted.
(§2) The post-emergent herbicidal activity index used in Tables I and II is as follows: […]

[2] = test system: Quackgrass
Description: as §1, §2

[3] = test system: Cocklebur
Description: as §1, §2

[4] = test system: Morningglory
Description: as §1, §2

[5] = test system: Lambsquarters
Description: as §1, §2

[6] = test system: Johnsongrass
Description: as §1, §2

[7] = test system: Velvetleaf
Description: as §1, §2

[8] = test system: Smartweed
Description: as §1, §2

[9] = test system: Downy Brome
Description: as §1, §2

[10] = test system: Canada Thistle
Description: as §1, §2

[11] = test system: Yellow Nutsedge
Description: as §1, §2

Row | Compound | post-emergent herbicidal activity index ([1]; 4 WAT, 5.6 kg/h) | post-emergent herbicidal activity index ([1]; 4 WAT, 11.2 kg/h) | post-emergent herbicidal activity index ([2]; 4 WAT, 5.6 kg/h) | post-emergent herbicidal activity index ([2]; 4 WAT, 11.2 kg/h) | post-emergent herbicidal activity index ([3]; 4 WAT, 5.6 kg/h) | post-emergent herbicidal activity index ([3]; 4 WAT, 11.2 kg/h) | post-emergent herbicidal activity index ([4]; 4 WAT, 5.6 kg/h) | post-emergent herbicidal activity index ([4]; 4 WAT, 11.2 kg/h) | post-emergent herbicidal activity index ([5]; 4 WAT, 5.6 kg/h) | post-emergent herbicidal activity index ([5]; 4 WAT, 11.2 kg/h) | post-emergent herbicidal activity index ([6]; 4 WAT, 5.6 kg/h) | post-emergent herbicidal activity index ([6]; 4 WAT, 11.2 kg/h) | post-emergent herbicidal activity index ([7]; 4 WAT, 5.6 kg/h) | post-emergent herbicidal activity index ([7]; 4 WAT, 11.2 kg/h) | post-emergent herbicidal activity index ([8]; 4 WAT, 5.6 kg/h) | post-emergent herbicidal activity index ([8]; 4 WAT, 11.2 kg/h) | post-emergent herbicidal activity index ([9]; 4 WAT, 5.6 kg/h) | post-emergent herbicidal activity index ([9]; 4 WAT, 11.2 kg/h) | post-emergent herbicidal activity index ([10]; 4 WAT, 11.2 kg/h) | post-emergent herbicidal activity index ([11]; 4 WAT, 11.2 kg/h) | other results
1 | CCOC(=O)CNCP(=O)(OC(C)C(=O)OCC)OC(C)C(=O)OCC (stereo not drawn) [Example 16, propanoic acid, 2,2'-[[[[(2-ethoxy-2-oxoethyl)amino]methyl]phosphinylidene]bis(oxy)]-bis-,diethyl ester] | 1 (25-49% control) | 1 (25-49% control) | 0 (0-24% control) | 0 (0-24% control) | 0 (0-24% control) | 1 (25-49% control) | 1 (25-49% control) | 1 (25-49% control) | 0 (0-24% control) | 0 (0-24% control) | 0 (0-24% control) | 0 (0-24% control) | 0 (0-24% control) | 0 (0-24% control) | 0 (0-24% control) | 0 (0-24% control) | 0 (0-24% control) | 1 (25-49% control) | 0 (0-24% control) | 1 (25-49% control) | post-emergent herbicidal activity index ([10]; 4 WAT, 5.6 kg/h): 0 (0-24% control); post-emergent herbicidal activity index ([11]; 4 WAT, 5.6 kg/h): 1 (25-49% control)
2 | CCOC(=O)CNCP(=O)(OCCCl)OCCCl [Example 17, glycine, N-[[bis(2-chloroethoxy)phosphinyl]methyl]-, ethyl ester] |  | 1 (25-49% control) |  | 0 (0-24% control) |  | 0 (0-24% control) |  | 1 (25-49% control) |  | 1 (25-49% control) |  | 0 (0-24% control) |  | 1 (25-49% control) |  | 1 (25-49% control) |  | 0 (0-24% control) | 0 (0-24% control) | 0 (0-24% control) | post-emergent herbicidal activity index ([1]; 2 WAT, 5.6 kg/h): 0 (0-24% control); post-emergent herbicidal activity index ([2]; 2 WAT, 5.6 kg/h): 0 (0-24% control); post-emergent herbicidal activity index ([3]; 2 WAT, 5.6 kg/h): 0 (0-24% control); post-emergent herbicidal activity index ([4]; 2 WAT, 5.6 kg/h): 0 (0-24% control); post-emergent herbicidal activity index ([5]; 2 WAT, 5.6 kg/h): 0 (0-24% control); post-emergent herbicidal activity index ([6]; 2 WAT, 5.6 kg/h): 0 (0-24% control); post-emergent herbicidal activity index ([7]; 2 WAT, 5.6 kg/h): 0 (0-24% control); post-emergent herbicidal activity index ([8]; 2 WAT, 5.6 kg/h): 0 (0-24% control); post-emergent herbicidal activity index ([9]; 2 WAT, 5.6 kg/h): 0 (0-24% control); post-emergent herbicidal activity index ([10]; 2 WAT, 5.6 kg/h): 0 (0-24% control); post-emergent herbicidal activity index ([11]; 2 WAT, 5.6 kg/h): 0 (0-24% control)
3 | CCOC(=O)CNCP(=O)(OC(C)C(=O)OC)OC(C)C(=O)OC (stereo not drawn) [Example 18] | 1 (25-49% control) | 2 (50-74% control) | 0 (0-24% control) | 3 (75-99% control) | 0 (0-24% control) | 0 (0-24% control) | 1 (25-49% control) | 1 (25-49% control) | 0 (0-24% control) | 0 (0-24% control) | 0 (0-24% control) | 1 (25-49% control) | 0 (0-24% control) | 0 (0-24% control) | 0 (0-24% control) | 0 (0-24% control) | 0 (0-24% control) | 2 (50-74% control) | 0 (0-24% control) | 2 (50-74% control) | post-emergent herbicidal activity index ([10]; 4 WAT, 5.6 kg/h): 0 (0-24% control); post-emergent herbicidal activity index ([11]; 4 WAT, 5.6 kg/h): 1 (25-49% control)
4 | CCOC(=O)CNCP(=O)(OCCSC(=O)OCC)OCCSC(=O)OCC [Example 19, glycine, N-[[bis[2-[(ethoxycarbonyl)thio]ethoxy]-phosphinyl]methyl]-, ethyl ester] | 1 (25-49% control) | 2 (50-74% control) | 0 (0-24% control) | 1 (25-49% control) | 0 (0-24% control) | 2 (50-74% control) | 2 (50-74% control) | 2 (50-74% control) | 0 (0-24% control) | 0 (0-24% control) | 1 (25-49% control) | 2 (50-74% control) | 0 (0-24% control) | 0 (0-24% control) | 0 (0-24% control) | 1 (25-49% control) | 0 (0-24% control) | 0 (0-24% control) | 2 (50-74% control) | 1 (25-49% control) | post-emergent herbicidal activity index ([10]; 4 WAT, 5.6 kg/h): 1 (25-49% control); post-emergent herbicidal activity index ([11]; 4 WAT, 5.6 kg/h): 0 (0-24% control)
5 | CCOC(=O)CNCP(=O)(OC1CCCSC1)OC1CCCSC1 (stereo not drawn) [Example 20, glycine, N-[[bis[(tetrahydro-2H-thiopyran-3-yl)-oxy]-phosphinyl]methyl]-, ethyl ester] |  | 1 (25-49% control) |  | 1 (25-49% control) |  | 0 (0-24% control) |  | 1 (25-49% control) |  | 1 (25-49% control) |  | 0 (0-24% control) |  | 1 (25-49% control) |  | 0 (0-24% control) |  | 0 (0-24% control) | 0 (0-24% control) | 0 (0-24% control) | post-emergent herbicidal activity index ([1]; 2 WAT, 5.6 kg/h): 0 (0-24% control); post-emergent herbicidal activity index ([2]; 2 WAT, 5.6 kg/h): 0 (0-24% control); post-emergent herbicidal activity index ([3]; 2 WAT, 5.6 kg/h): 0 (0-24% control); post-emergent herbicidal activity index ([4]; 2 WAT, 5.6 kg/h): 0 (0-24% control); post-emergent herbicidal activity index ([5]; 2 WAT, 5.6 kg/h): 0 (0-24% control); post-emergent herbicidal activity index ([6]; 2 WAT, 5.6 kg/h): 0 (0-24% control); post-emergent herbicidal activity index ([7]; 2 WAT, 5.6 kg/h): 0 (0-24% control); post-emergent herbicidal activity index ([8]; 2 WAT, 5.6 kg/h): 0 (0-24% control); post-emergent herbicidal activity index ([9]; 2 WAT, 5.6 kg/h): 0 (0-24% control); post-emergent herbicidal activity index ([10]; 2 WAT, 5.6 kg/h): 0 (0-24% control); post-emergent herbicidal activity index ([11]; 2 WAT, 5.6 kg/h): 0 (0-24% control)
6 | CCOC(=O)CNCP(=O)(OCc1ccco1)OCc1ccco1 [Example 21, glycine, N-[[bis(2-furanylmethoxy)phosphinyl]methyl]-, ethyl ester] |  | 0 (0-24% control) |  | 0 (0-24% control) |  | 0 (0-24% control) |  | 1 (25-49% control) |  | 0 (0-24% control) |  | 0 (0-24% control) |  | 0 (0-24% control) |  | 0 (0-24% control) |  | 0 (0-24% control) | 0 (0-24% control) | 0 (0-24% control) | post-emergent herbicidal activity index ([1]; 4 WAT, 56.0 kg/h): 2 (50-74% control); post-emergent herbicidal activity index ([2]; 4 WAT, 56.0 kg/h): 0 (0-24% control); post-emergent herbicidal activity index ([3]; 4 WAT, 56.0 kg/h): 2 (50-74% control); post-emergent herbicidal activity index ([4]; 4 WAT, 56.0 kg/h): 2 (50-74% control); post-emergent herbicidal activity index ([5]; 4 WAT, 56.0 kg/h): 1 (25-49% control); post-emergent herbicidal activity index ([6]; 4 WAT, 56.0 kg/h): 0 (0-24% control); post-emergent herbicidal activity index ([7]; 4 WAT, 56.0 kg/h): 1 (25-49% control); post-emergent herbicidal activity index ([8]; 4 WAT, 56.0 kg/h): 1 (25-49% control); post-emergent herbicidal activity index ([9]; 4 WAT, 56.0 kg/h): 1 (25-49% control); post-emergent herbicidal activity index ([10]; 4 WAT, 56.0 kg/h): 3 (75-99% control); post-emergent herbicidal activity index ([11]; 4 WAT, 56.0 kg/h): 1 (25-49% control)
